# From PubChem BioAssay (NCI)
#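 Following 48 hours of exposure in 96-well plates, responses at five concentrations were used to interpolate endpoints linearly. At the GI50, growth is halved. The concentration for full growth arrest is given as TGI.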
# Experiments:
# Assay in all cases: growth of human tumour cells (NCI), 48 h
# [1] = tested on: 786-0 renal
# [2] = tested on: CCRF-CEM leukemia
# [3] = tested on: EKVX NSCLC
# [4] = tested on: HCT-116 colon
# [5] = tested on: KM12 colon
# [6] = tested on: MDA-N
# [7] = tested on: NCI-H23 lung
# [8] = tested on: RXF 393 renal
# [9] = tested on: SNB-19 CNS
# [10] = tested on: SNB-75 CNS
# [11] = tested on: OVCAR-5 ovarian
Compound,TGI [1],TGI [2],TGI [3],TGI [4],TGI [5],TGI [6],TGI [7],TGI [8],TGI [9],TGI [10],TGI [11],GI50 [2],GI50 [4],GI50 [8],GI50 [9],GI50 [10]
CSc1c(C#N)c(=O)n(N)c2n[nH]c(C)c12,> 100 µM,> 100 µM,> 100 µM,> 100 µM,> 100 µM,> 100 µM,> 100 µM,> 100 µM,> 100 µM,> 100 µM,–,–,–,–,–,–
C[C@@H](Br)[C@@H]1CC[C@H]2c3[nH]c4ccccc4c3CCN2C1,36.6 µM,54.8 µM,> 100 µM,–,28.5 µM,44 µM,67.1 µM,61.5 µM,43.9 µM,48.3 µM,> 100 µM,–,–,–,–,–
CN(C)CCNc1nc2c(c(=O)n(C)c(=O)n2C)n1C,> 100 µM,> 100 µM,> 100 µM,> 100 µM,> 100 µM,> 100 µM,> 100 µM,> 100 µM,> 100 µM,–,> 100 µM,–,–,–,–,–
COC(=O)c1cc(OCc2cc(OCc3ccc(Br)cc3)cc(OCc3ccc(Br)cc3)c2)cc(OCc2cc(OCc3ccc(Br)cc3)cc(OCc3ccc(Br)cc3)c2)c1,> 100 µM,–,> 100 µM,> 100 µM,> 100 µM,> 100 µM,> 100 µM,–,> 100 µM,> 100 µM,> 100 µM,–,–,–,–,–
O=C(O)c1cc2sc(C(=O)O)cc2s1,–,> 100 µM,–,> 100 µM,> 100 µM,–,> 100 µM,> 100 µM,> 100 µM,> 100 µM,> 100 µM,–,–,–,–,–
O=Cc1ccc(Oc2c3ccccc3nc3ccccc23)cc1,6.16 µM,6.72 µM,40.2 µM,4.9 µM,58.7 µM,13.8 µM,–,21.5 µM,36.4 µM,29.5 µM,16.7 µM,–,–,–,–,–
COc1ccc(/C=C2/C(=O)C(c3ccccc3)N(c3ccccc3)C2=O)cc1OC (stereo not given),> 10 µM,> 10 µM,> 10 µM,> 10 µM,> 10 µM,> 10 µM,> 10 µM,> 10 µM,> 10 µM,–,> 10 µM,–,–,–,–,–
Cc1csc(CP(=O)(OC(C)C)OC(C)C)n1,> 100 µM,–,> 100 µM,> 100 µM,–,> 100 µM,> 100 µM,> 100 µM,> 100 µM,> 100 µM,> 100 µM,–,–,–,–,–
COc1ccccc1N1C(=O)/C(=C\c2ccccc2)SC1c1cc(OC)c(OC)c(OC)c1 (stereo not given),> 100 µM,–,> 100 µM,> 100 µM,> 100 µM,48.6 µM,> 100 µM,–,> 100 µM,–,> 100 µM,–,–,–,–,–
O=CC1C(=O)Nc2nc3ccccc3n2C1c1ccccc1 (stereo not given),24.9 µM,75.2 µM,82 µM,24.9 µM,29.9 µM,–,53.5 µM,16 µM,–,22.3 µM,95.7 µM,–,–,–,–,–
COc1cc2oc(=O)cc(C)c2c(OC)c1OC,> 100 µM,> 100 µM,> 100 µM,> 100 µM,> 100 µM,> 100 µM,> 100 µM,–,> 100 µM,> 100 µM,> 100 µM,–,–,–,–,–
c1ccc2c[n+](Cc3ccnc4ccccc34)ccc2c1,> 100 µM,> 100 µM,> 100 µM,> 100 µM,> 100 µM,> 100 µM,> 100 µM,> 100 µM,> 100 µM,–,> 100 µM,–,–,–,–,–
COc1ccc(C(CC(=O)c2ccc(O)cc2)C(C(=O)c2ccc(O)cc2)C(c2ccc(OC)cc2)C2C(=O)NC(=S)NC2=O)cc1 (stereo not given),44.2 µM,36 µM,–,30.4 µM,31.9 µM,41.5 µM,–,–,43.7 µM,87.5 µM,49.6 µM,–,–,–,–,–
O=c1oc2ccc([N+](=O)[O-])cc2cc1-c1csc(-c2ccccc2)n1,> 100 µM,> 100 µM,> 100 µM,> 100 µM,> 100 µM,> 100 µM,–,> 100 µM,> 100 µM,> 100 µM,> 100 µM,–,–,–,–,–
Cc1cn(C2CC(/[N+]([O-])=N\Nc3ccc([N+](=O)[O-])cc3)C(CO)O2)c(=O)[nH]c1=O (stereo not given),> 100 µM,> 100 µM,> 100 µM,> 100 µM,> 100 µM,> 100 µM,> 100 µM,> 100 µM,> 100 µM,–,> 100 µM,–,–,–,–,–
COC(=O)/C=C/[C@H]1[C@H](C)N1S(=O)(=O)c1ccc(C)cc1 (stereo not given in full),> 100 µM,> 100 µM,> 100 µM,> 100 µM,> 100 µM,> 100 µM,> 100 µM,> 100 µM,> 100 µM,–,> 100 µM,–,–,–,–,–
CN=C(NC#N)NCc1ccccc1,> 100 µM,> 100 µM,> 100 µM,> 100 µM,> 100 µM,–,> 100 µM,–,> 100 µM,> 100 µM,> 100 µM,–,–,–,–,–
COc1ccc(C2=Nn3c(C)nnc3S/C2=C\c2ccc(-c3ccc([N+](=O)[O-])cc3)o2)cc1,22 µM,> 100 µM,82.9 µM,26.1 µM,40.1 µM,29.8 µM,28.5 µM,22.8 µM,38.7 µM,–,43 µM,–,–,–,–,–
O=c1[nH]nc(-c2ccccc2)c2[nH]c3c(c12)CCCc1ccccc1-3,28 µM,47.2 µM,> 100 µM,28.5 µM,23.5 µM,29.4 µM,> 100 µM,36 µM,26.8 µM,–,34.8 µM,–,–,–,–,–
COc1cc(/C=C2\CCCC3=C2N=C2SC=NN2C3c2cc(OC)c(OC)c(OC)c2)cc(OC)c1OC (stereo not given),–,> 100 µM,–,3.41 µM,–,–,–,4.74 µM,> 100 µM,> 100 µM,–,3.17 µM,1760 nM,2200 nM,4.44 µM,7.52 µM
O=C1C=C(NCCc2ccc(O)cc2)C(=O)C=C1NCCc1ccc(O)cc1,> 100 µM,> 100 µM,> 100 µM,> 100 µM,> 100 µM,–,> 100 µM,> 100 µM,> 100 µM,47.5 µM,> 100 µM,–,–,–,–,–

Compound,TGI [1],TGI [2],TGI [3],TGI [4],TGI [5],TGI [6],TGI [7],TGI [8],TGI [9],TGI [10],TGI [11],GI50 [2],GI50 [4],GI50 [8],GI50 [9],GI50 [10]
COc1ccc([C@H]2C=C(c3cc(F)c(Cl)cc3Cl)N=c3s/c(=C\c4ccc(-c5ccc(Cl)cc5Cl)o4)c(=O)n32)cc1,> 100 µM,–,–,> 100 µM,> 100 µM,> 100 µM,> 100 µM,> 100 µM,> 100 µM,> 100 µM,> 100 µM,–,–,–,–,–
FC(F)(F)c1ccc(N=NN2CCCC2)cc1,> 100 µM,> 100 µM,> 100 µM,> 100 µM,65.2 µM,> 100 µM,> 100 µM,> 100 µM,> 100 µM,–,> 100 µM,–,–,–,–,–
O=C(O)COc1cccc2ccccc(=O)c12,> 100 µM,> 100 µM,> 100 µM,> 100 µM,> 100 µM,> 100 µM,> 100 µM,> 100 µM,> 100 µM,–,> 100 µM,–,–,–,–,–
O=C(O)Cc1ccc(-n2nnc3c(=O)[nH][nH]c(=O)c32)cc1,> 100 µM,> 100 µM,> 100 µM,> 100 µM,> 100 µM,> 100 µM,> 100 µM,–,> 100 µM,–,> 100 µM,–,–,–,–,–
COc1ccc(/C=C2\NC(=S)N(CN3CCOCC3)C2=O)cc1,> 100 µM,> 100 µM,> 100 µM,> 100 µM,> 100 µM,> 100 µM,> 100 µM,–,> 100 µM,> 100 µM,> 100 µM,–,–,–,–,–
C[C@H](OC(=O)/C=C/c1ccc(O)c(O)c1)[C@H](C)OC(=O)/C=C/c1ccc(O)c(O)c1,20 µM,–,33 µM,23.3 µM,> 100 µM,18.4 µM,18 µM,28.5 µM,25.6 µM,39.3 µM,33.1 µM,–,–,–,–,–
COC(=O)CCC(=O)c1ccc2c(c1)CC1(Cc3ccccc3C1)C2,> 100 µM,45.4 µM,> 100 µM,> 100 µM,> 100 µM,> 100 µM,> 100 µM,> 100 µM,–,–,> 100 µM,–,–,–,–,–
O=[N+]([O-])c1cnccc1-n1nnc2ccccc21,–,> 86.5 µM,90.6 µM,> 100 µM,40.7 µM,–,> 62 µM,46.8 µM,> 100 µM,54.1 µM,73.4 µM,–,–,–,–,–
CN1CCN(C(=S)N(C(=O)c2ccc(Cl)cc2)C2CCCCC2)CC1,> 100 µM,> 100 µM,–,–,> 100 µM,> 100 µM,> 100 µM,> 100 µM,> 100 µM,85.2 µM,> 100 µM,–,–,–,–,–
CCCCCCCCC[C@@H]1C[C@H](O)[C@H](Cc2ccccc2)N1C(=O)OC(C)(C)C,–,55.9 µM,33.5 µM,31.9 µM,35.2 µM,–,31.6 µM,32.2 µM,33.5 µM,38.1 µM,28.5 µM,–,–,–,–,–
C=C(C)[C@H]1C=C[C@@H](OC(C)=O)[C@@]2(COC(C)=O)[C@H](OC(=O)CCC)[C@H]3[C@@H](OC(C)=O)[C@@H](C)C[C@]3(O)C(=O)[C@@](C)(OC(C)=O)[C@H]12,> 100 µM,> 100 µM,> 100 µM,> 100 µM,> 100 µM,–,> 100 µM,> 100 µM,> 100 µM,> 100 µM,> 100 µM,–,–,–,–,–
CCN(CC)C(=O)N1CN(c2ccccc2)C2(CCN(CCCC3(c4ccc(F)cc4)OCCO3)CC2)C1=O,33.6 µM,45.9 µM,90.2 µM,23.9 µM,31.1 µM,35.7 µM,36.6 µM,27.8 µM,89.7 µM,45.3 µM,–,–,–,–,–,–
NC(=O)NC(=O)c1cccc(C(=O)NC(N)=O)n1,> 100 µM,> 100 µM,> 100 µM,> 100 µM,> 100 µM,> 100 µM,> 100 µM,> 100 µM,> 100 µM,–,> 100 µM,–,–,–,–,–
COC(=O)Cc1c(-c2c(CC(=O)OC)c3ccccc3n2C2OC(COC3OC(COC(C)=O)C(OC(C)=O)C(OC(C)=O)C3OC(C)=O)C(O)C(O)C2O)[nH]c2ccccc12 (stereo not given),> 100 µM,> 100 µM,> 100 µM,> 100 µM,–,> 100 µM,> 100 µM,–,60 µM,–,> 100 µM,–,–,–,–,–
COc1cc(C2C(Cl)C(=O)N2NC(=O)c2ccccc2O)cc(OC)c1OC (stereo not given),> 10 µM,> 10 µM,> 10 µM,–,> 10 µM,–,9.95 µM,> 10 µM,> 10 µM,> 10 µM,> 10 µM,–,–,–,–,–
CNC(=S)c1nnsc1N,> 100 µM,> 100 µM,> 100 µM,> 100 µM,> 100 µM,> 100 µM,> 100 µM,> 100 µM,–,> 100 µM,> 100 µM,–,–,–,–,–
c1ccc2c(CCNC3=NCCO3)cccc2c1,–,> 10 µM,> 10 µM,> 10 µM,> 10 µM,> 10 µM,> 10 µM,> 10 µM,> 10 µM,> 10 µM,> 10 µM,–,–,–,–,–
Cc1ccc(S(=O)(=O)N/N=C2/C3CC4CCC2C4C3)cc1 (stereo not given),> 100 µM,–,> 100 µM,> 100 µM,> 100 µM,> 100 µM,> 100 µM,> 100 µM,–,> 100 µM,> 100 µM,–,–,–,–,–
O=C1N(c2ccccc2)N=C2c3ccncc3C3=NN(c4ccccc4)C(=O)C123 (stereo not given),> 100 µM,> 100 µM,> 100 µM,> 100 µM,> 100 µM,–,> 100 µM,> 100 µM,> 100 µM,> 100 µM,> 100 µM,–,–,–,–,–
CC(C)[Si](CC1=CCCCC12C(=O)N(COCC[Si](C)(C)C)c1ccccc12)(C(C)C)C(C)C (stereo not given),> 100 µM,36.6 µM,> 100 µM,–,> 100 µM,> 100 µM,> 100 µM,54.2 µM,> 100 µM,> 100 µM,80.9 µM,–,–,–,–,–
Cc1cc(NS(=O)(=O)c2ccc(N=Nc3c(Nc4ccccc4)nn(-c4ccc(S(=O)(=O)Nc5ccncn5)cc4)c3C)cc2)no1,> 100 µM,> 100 µM,> 100 µM,> 100 µM,> 100 µM,> 100 µM,> 100 µM,–,> 100 µM,> 100 µM,> 100 µM,–,–,–,–,–
